From patent publication US7361645B2, “Androgenic 7-substituted 11-halogen steroids” (Bayer Schering Pharma AG, priority 2001, dated 2008)
Where “and” joins values, the source holds several entries; their conditions need not be identical. Equal values may be shown once.

Key:
[1] = Stability in liver microsomes, rat; format: in vitro ADME; details: 3 μM
Procedure: (§1) The metabolic stability of the compounds has been tested in liver microsomes of various species (commercially available). It is possible to make predictions as to the first-pass-metabolism in human by using human test material. A rapid degradation of the test material gives hints at low oral bio-availability of the substance tested.
(§2) The amount of the remaining compound is quantified by comparison with the amount remaining after 0 mins.
(§3) Species Specific Stability of Test Compounds in Liver at a Concentration of 3 μM

[2] = system: M. levator ani; assay: Hershberger test, juvenile castrated male rat: M. levator ani weight; format: in vivo; details: ORX juvenile rats, 7 days
Source text: (§4) The test by Hershberger et al. (1953) is used as a screening test method for detecting androgenic properties:
(§5) Principle. The function and size of the accessory reproductive glands (seminal vesicles, prostate) and of the muscle (e.g. M. levator ani) are androgen dependent. Castration leads to the atrophy of these organs, the substitution with androgenic compounds stimulates growth and function in a dose dependent manner.
(§6) Test description. In the juvenile male castrated rat, pharmacologically active agonists of androgens stimulate the growth of the prostate, seminal vesicles (androgenic property) and Musculus levator ani (anabolic property). The treatment for seven days of juvenile castrated male rats with daily administration of compound A: 11β-Fluoro-17β-hydroxy-7α-methyl-estr-4-en-3-one,(different doses), compound B: 7α-methyl-19-nortestosterone (different doses), testosterone propionate (reference) and benzylbenzoate/ricinus oil (solvent and control), respectively, was used to determine the androgenic and anabolic potency of eF-MENT. Analyses: relative weights of prostate, seminal vesicles and M. levator ani.
(§7) Animals: ORX, juvenile rats, duration of treatment: 7 days.

[3] = Stability in liver microsomes, human; format: in vitro ADME; details: 3 μM
Procedure: as §1, §2, §3

[4] = Stability in liver microsomes of various species, overall; format: in vitro ADME; details: compared with compounds of the prior art
Procedure: as §1, §2

[5] = system: prostate, seminal vesicles and M. levator ani; assay: Anabolic and androgenic activity in the juvenile male rat (Hershberger), overall; format: in vivo; details: compared with prior art compound B
Source text: as §4, §5, §6

[6] = Stability in liver microsomes, mouse; format: in vitro ADME; details: 3 μM
Procedure: as §1, §2, §3

[7] = system: seminal vesicles; assay: Hershberger test, juvenile castrated male rat: seminal vesicles weight; format: in vivo; details: ORX juvenile rats, 7 days
Source text: as §4, §5, §6, §7

[8] = system: prostate; assay: Hershberger test, juvenile castrated male rat: prostate weight; format: in vivo; details: ORX juvenile rats, 7 days
Source text: as §4, §5, §6, §7

For `C[C@@H]1CC2=CC(=O)CC[C@@H]2[C@@H]2[C@@H]1[C@@H]1CC[C@H](O)[C@@]1(C)C[C@@H]2F` [Compound A, 11β-Fluoro-17β-hydroxy-7α-methyl-estr-4-en-3-one], the “(%) left unchanged after 30 min” value [1] was 5%, the “(%) left unchanged after 60 min” value [1] was 7% and the “M. levator ani Stimulation [mean]” value ([2]; dose 0.015 mg*kg^-1*day^-1) was 79.5. The “M. levator ani rel. Weight” value ([2]; dose 0.015 mg*kg^-1*day^-1) was 54.9 mg/100 g and 50.8 mg/100 g, the “M. levator ani Stimulation [mean]” value ([2]; dose 0.03 mg*kg^-1*day^-1) was 93.3 and the “M. levator ani rel. Weight” value ([2]; dose 0.03 mg*kg^-1*day^-1) was 56.5 mg/100 g. The “M. levator ani Stimulation [mean]” value ([2]; dose 0.05 mg*kg^-1*day^-1) was 118.0, the “M. levator ani rel. Weight” value ([2]; dose 0.05 mg*kg^-1*day^-1) was 59.4 mg/100 g and the “M. levator ani Stimulation [mean]” value ([2]; dose 0.15 mg*kg^-1*day^-1) was 154.5. For the same compound, the “M. levator ani Stimulation [mean]” value ([2]; dose 0.3 mg*kg^-1*day^-1) was 180.4, the “M. levator ani rel. Weight” value ([2]; dose 0.3 mg*kg^-1*day^-1) was 69.8 mg/100 g and the “M. levator ani Stimulation [mean]” value ([2]; dose 1.5 mg*kg^-1*day^-1) was 181.0. For the same compound, the “M. levator ani rel. Weight” value ([2]; dose 1.5 mg*kg^-1*day^-1) was 69.9 mg/100 g, the “(%) left unchanged after 30 min” value [3] was 59% and the “(%) left unchanged after 60 min” value [3] was 41%. The metabolic stability [4] was “higher than that of compounds of the prior art”, the “activity profile (androgenic/anabolic)” value [5] was “comparable to the prior art compound B” and the “(%) left unchanged after 30 min” value [6] was 20%. The “(%) left unchanged after 60 min” value [6] was 11%, the “Seminal vesicles Stimulation [mean]” value ([7]; dose 0.015 mg*kg^-1*day^-1) was 18.6 and the “Seminal vesicles rel. Gewicht” value ([7]; dose 0.015 mg*kg^-1*day^-1) was 18.6 mg/100 g and 15.5 mg/100 g. For the same compound, the “Seminal vesicles Stimulation [mean]” value ([7]; dose 0.03 mg*kg^-1*day^-1) was 35.6, the “Seminal vesicles rel. Gewicht” value ([7]; dose 0.03 mg*kg^-1*day^-1) was 26.8 mg/100 g and the “Seminal vesicles Stimulation [mean]” value ([7]; dose 0.05 mg*kg^-1*day^-1) was 59.2. The “Seminal vesicles rel. Gewicht” value ([7]; dose 0.05 mg*kg^-1*day^-1) was 43.6 mg/100 g, the “Seminal vesicles Stimulation [mean]” value ([7]; dose 0.15 mg*kg^-1*day^-1) was 85.5 and the “Seminal vesicles rel. Gewicht” value ([7]; dose 0.15 mg*kg^-1*day^-1) was 49.3 mg/100 g and 57.9 mg/100 g and 64.4 mg/100 g. The “Seminal vesicles Stimulation [mean]” value ([7]; dose 0.3 mg*kg^-1*day^-1) was 144.8, the “Seminal vesicles rel. Gewicht” value ([7]; dose 0.3 mg*kg^-1*day^-1) was 93.4 mg/100 g and the “Seminal vesicles Stimulation [mean]” value ([7]; dose 1.5 mg*kg^-1*day^-1) was 189.3. For the same compound, the “Seminal vesicles rel. Gewicht” value ([7]; dose 1.5 mg*kg^-1*day^-1) was 120.0 mg/100 g, the “Prostate Stimulation [mean]” value ([8]; dose 0.015 mg*kg^-1*day^-1) was 30.0 and the “Prostate rel. Weight” value ([8]; dose 0.015 mg*kg^-1*day^-1) was 19.7 mg/100 g and 18.5 mg/100 g. The “Prostate Stimulation [mean]” value ([8]; dose 0.03 mg*kg^-1*day^-1) was 40.1, the “Prostate rel. Weight” value ([8]; dose 0.03 mg*kg^-1*day^-1) was 25.2 mg/100 g and the “Prostate Stimulation [mean]” value ([8]; dose 0.05 mg*kg^-1*day^-1) was 76.6. The “Prostate rel. Weight” value ([8]; dose 0.05 mg*kg^-1*day^-1) was 34.1 mg/100 g, the “Prostate Stimulation [mean]” value ([8]; dose 0.15 mg*kg^-1*day^-1) was 93.8 and the “Prostate rel. Weight” value ([8]; dose 0.15 mg*kg^-1*day^-1) was 41.7 mg/100 g and 44.9 mg/100 g and 47.5 mg/100 g. For the same compound, the “Prostate Stimulation [mean]” value ([8]; dose 0.3 mg*kg^-1*day^-1) was 125.1, the “Prostate rel. Weight” value ([8]; dose 0.3 mg*kg^-1*day^-1) was 59.5 mg/100 g and the “Prostate Stimulation [mean]” value ([8]; dose 1.5 mg*kg^-1*day^-1) was 137.3. The “Prostate rel. Weight” value ([8]; dose 1.5 mg*kg^-1*day^-1) was 64.6 mg/100 g.

With `C[C@@H]1CC2=CC(=O)CC[C@@H]2[C@H]2CC[C@]3(C)[C@@H](O)CC[C@H]3[C@@H]21` [Compound B, 7α-methyl-19-nortestosterone, reference compound] the “(%) left unchanged after 30 min” value [1] was 4%, the “(%) left unchanged after 60 min” value [1] was 6% and the “M. levator ani Stimulation [mean]” value ([2]; dose 0.005 mg*kg^-1*day^-1) was 71.3. For the same compound, the “M. levator ani rel. Weight” value ([2]; dose 0.005 mg*kg^-1*day^-1) was 36.6 mg/100 g, the “M. levator ani Stimulation [mean]” value ([2]; dose 0.015 mg*kg^-1*day^-1) was 92.6 and the “M. levator ani rel. Weight” value ([2]; dose 0.015 mg*kg^-1*day^-1) was 38.1 mg/100 g and 53.7 mg/100 g. For the same compound, the “M. levator ani Stimulation [mean]” value ([2]; dose 0.05 mg*kg^-1*day^-1) was 150.7, the “M. levator ani rel. Weight” value ([2]; dose 0.05 mg*kg^-1*day^-1) was 48.1 mg/100 g and 59.4 mg/100 g and the “M. levator ani Stimulation [mean]” value ([2]; dose 0.15 mg*kg^-1*day^-1) was 283.4. For the same compound, the “M. levator ani rel. Weight” value ([2]; dose 0.15 mg*kg^-1*day^-1) was 59.4 mg/100 g, the “(%) left unchanged after 30 min” value [3] was 37% and the “(%) left unchanged after 60 min” value [3] was 19%. The “(%) left unchanged after 30 min” value [6] was 4%, the “(%) left unchanged after 60 min” value [6] was 4% and the “Seminal vesicles Stimulation [mean]” value ([7]; dose 0.005 mg*kg^-1*day^-1) was 4.6. The “Seminal vesicles rel. Gewicht” value ([7]; dose 0.005 mg*kg^-1*day^-1) was 9.2 mg/100 g, the “Seminal vesicles Stimulation [mean]” value ([7]; dose 0.015 mg*kg^-1*day^-1) was 17.0 and the “Seminal vesicles rel. Gewicht” value ([7]; dose 0.015 mg*kg^-1*day^-1) was 13.6 mg/100 g and 19.2 mg/100 g. For the same compound, the “Seminal vesicles Stimulation [mean]” value ([7]; dose 0.05 mg*kg^-1*day^-1) was 51.8, the “Seminal vesicles rel. Gewicht” value ([7]; dose 0.05 mg*kg^-1*day^-1) was 36.8 mg/100 g and 39.0 mg/100 g and the “Seminal vesicles Stimulation [mean]” value ([7]; dose 0.15 mg*kg^-1*day^-1) was 87.8. For the same compound, the “Seminal vesicles rel. Gewicht” value ([7]; dose 0.15 mg*kg^-1*day^-1) was 65.5 mg/100 g, the “Prostate Stimulation [mean]” value ([8]; dose 0.005 mg*kg^-1*day^-1) was 4.3 and the “Prostate rel. Weight” value ([8]; dose 0.005 mg*kg^-1*day^-1) was 8.9 mg/100 g. For the same compound, the “Prostate Stimulation [mean]” value ([8]; dose 0.015 mg*kg^-1*day^-1) was 24.0, the “Prostate rel. Weight” value ([8]; dose 0.015 mg*kg^-1*day^-1) was 14.6 mg/100 g and 20.0 mg/100 g and the “Prostate Stimulation [mean]” value ([8]; dose 0.05 mg*kg^-1*day^-1) was 51.3. For the same compound, the “Prostate rel. Weight” value ([8]; dose 0.05 mg*kg^-1*day^-1) was 24.7 mg/100 g and 31.7 mg/100 g, the “Prostate Stimulation [mean]” value ([8]; dose 0.15 mg*kg^-1*day^-1) was 90.2 and the “Prostate rel. Weight” value ([8]; dose 0.15 mg*kg^-1*day^-1) was 40.6 mg/100 g.
